Earlier results as cited in US20080171790A1, “Fatty acids-systemic lipid solubilizers conjugates” (priority 2007, published 2008).

Details: after oral administration

SMILES: C[C@H](CCC(=O)O)[C@H]1CC[C@H]2[C@@H]3C[C@H](O)[C@@H]4C[C@H](O)CC[C@]4(C)[C@H]3CC[C@]12C [hyodeoxycholic acid, Hyodeoxycholic acid]
- proportion of the administered substance excreted in the urine as a glucuronide: up to 84%
